Assay results from US8642627B2 (priority 2002, dated 2014).
Where two headings read alike, the source gives them in different places.

Legend:
[1] = aqueous system, 20° C.; cited from earlier work
[2] = Andersen Cascade Impactor (ACI) experiment; type: physicochemical
adult = settings: cited from earlier work
[3] = apparent pH 6.5, 90% ethanol
[4] = cited from earlier work

CN1CCCC1c1cccnc1 (stereo not shown) [nicotine, 3-(1-methyl-2-pyrrolidinyl)-pyridine]
pKa for the acid dissociation constant of the mono protonated form of nicotine [1]: approximately 8.0 | behaviour of nicotine in the aerosol droplets ([2]; formulation at apparent pH 4.0, nicotine in salt form): remains in the liquid droplets | behaviour of nicotine in the aerosol droplets ([2]; formulation at apparent pH 6.0): escapes from the liquid droplets as a vapor | share of nicotine in its free base form ([2]; formulation at apparent pH 6.0): approximately 15% | pKa (physchem; apparent pKa of nicotine, 90% ethanol, titration curve with sulphuric acid): 6.5 | pKa (physchem; apparent pKa, ethanol-based system, 20° C.): ~6.5 | amount that may kill an adult (adult): Approximately forty | share of nicotine in its free base form [3]: 50% | arterial levels exceeding the venous levels ([4]; in vivo): six- to ten-fold | time to reach the brain after inhalation ([4]; smoking of a cigarette): ten
